The values below come from patent US20150299801A1, “Techniques for Treating Acute Lymphoblastic Leukemia (ALL)” (THE TRUSTEES OF COLUMBIA UNIVERSITY IN THE CITY OF NEW YORK, priority 2012, published 2015).

The structures appear in SMILES notation.

Test [1] relates to CCRF-CEM T-ALL cells expressing relapse-associated mutant NT5C2 alleles. In words: MTT cell viability and chemotherapy drug response, CCRF-CEM cells expressing mutant NT5C2. To be noted: for IC50: Homo sapiens, CCRF-CEM cells expressing mutation (NT5C2 R367Q), read from graph, viability relative to vehicle treated cells, read-out: log concentration at which viability falls to 50% (converted); for increase of IC50 for mutations versus control (RFP) or wild type (NT5C2 WT): CCRF-CEM cell line, NT5C2 R367Q, D407A; for resistance to therapy compared with empty vector and wild type NT5C2 controls: cells expressing NT5C2 K359Q, R367Q and D407A, increased drug concentrations. It counts as cell-based. On the procedure:
(§1) To formally test the role of NT5C2 mutations in chemotherapy resistance, the effects of wild type and relapse-associated mutant NT5C2 expression were analyzed in the response of CCRF-CEM T-ALL cells to 6-mercaptopurine (6-MP) and 6-thyogunanine (6-TG). Expression of NT5C2 mutations in ALL cells induces resistance to chemotherapy with 6-MP and 6-TG. Viability assays were performed in CCRF-CEM and CUTLL1 T-ALL cells expressing wild type NT5C2, relapse-associated mutant NT5C2 alleles, or a red fluorescent protein (RFP) as control, treated with increased concentrations of the nucleoside analog chemotherapeutic drugs.
(§2) CCRF-CEM and CUTLL1 cells were cultured in RPMI-1640 media supplemented with 10% fetal bovine serum, 100U/ml penicillin G and 100 ug/ml streptomycin at 37 C in a humidified atmosphere under 5% CO2. HEK293T were maintained under similar conditions in DMEM media.
(§3) The lentiviral constructs pLOC-NT5C2, pLOC-NT5C2 359, pLOC-I 367, pLOC-I 407 and the pLOC-RFP control plasmid were transfected with gag-pol and V-SVG expressing vectors into HEK293T cells using JetPEI transfection reagent (Polyplus, of Illkirch, France). Viral supernatants were collected after 48 h and used for infection of CCRF-CEM and CUTLL1 cells by spinoculation. After infection, cells were selected for 5 days in blasticidin and ficolled the day before experiments.
(§4) Cell viability was determined by measurement of the metabolic reduction of the tetrazolium salt MTT using the Cell Proliferation Kit I (Roche, of Indianapolis, Ind.) following the manufacturer instructions. Experiments were done in triplicates. Viability was analyzed after 48 or 72 hours of initiation of treatment with 6-mercaptopurine, 6-thioguanine, nelarabine and Ara-G.

Test [2] deals with CCRF-CEM T-ALL cells expressing RFP control or wild type NT5C2. In words: MTT cell viability and chemotherapy drug response, CCRF-CEM control cells. The format is cell-based. Particulars: Homo sapiens; CCRF-CEM cells expressing RFP control or NT5C2 WT; read from graph; read-out: log concentration at which viability falls to 50% (converted). The procedure: as §1, §2, §3, §4
In test [3] the test system is CUTLL1 T-ALL cells expressing RFP control or wild type NT5C2. The experiment in a line: MTT cell viability and chemotherapy drug response, CUTLL1 control cells. It counts as cell-based. Particulars: CUTLL1 cells expressing RFP control or NT5C2 WT; read from graph; read-out: log concentration at which viability falls to 50% (converted). On the procedure: as §1
CCRF-CEM and CUTLL1 cells were cultured in RPMI-1640 media supplemented with 10% fetal bovine serum, 100U/ml penicillin G and 100 ug/ml streptomycin at 37 C in a humidified atmosphere under 5% CO2. HEK293T were maintained under similar conditions in DMEM media. […]
Cell viability was determined by measurement of the metabolic reduction of the tetrazolium salt MTT using the Cell Proliferation Kit I (Roche, of Indianapolis, Ind.) following the manufacturer instructions. […] Viability was analyzed after 48 or 72 hours of initiation of treatment with 6-mercaptopurine, 6-thioguanine, nelarabine and Ara-G.

The subject of test [4] is CUTLL1 T-ALL cells expressing relapse-associated mutant NT5C2 alleles. In words: MTT cell viability and chemotherapy drug response, CUTLL1 cells expressing mutant NT5C2. To be noted: for increase of IC50 for mutations versus control (RFP) or wild type (NT5C2 WT): CUTLL1 cell line, NT5C2 R367Q, D407A. It counts as cell-based. On the procedure: as §1, §2, §3, §4
Test [5] has as its system NT5C2 K359Q, R367Q, D407A, L375F, R238W. In words: 5'-nucleotidase activity as a function of ATP concentration, remaining mutations. The format is biochemical, human. The procedure: (§5) Biochemical nucleotidase assays measuring release of phosphate upon incubation of NT5C2 with phosphonucleodides were used, including a commercial kit that measures enzymatic activity. (See file DZ123A.php in subfolder reagents of folder products in the World Wide Web at domain diazyme in category corn.)
(§6) Full length cDNA constructs encoding wild type NT5C2, NT5C2 K359Q, NT5C2 R367Q and NT5C2 D407A were cloned with an N-terminal His6 tag in the pET28a-LIC expression vector using the In-Fusion HD PCR cloning system (Clontech, of Mountain View, Calif.), as per manufacturer's instructions. Recombinant proteins were expressed from Rosetta 2(DE3) E. coli cells by induction with 0.5 mM isopropyl-β-D-thiogalactopyranoside for 3 hours at 37° C. […] Protein expression and purity was assessed y SDS-PAGE and Coomassie staining.
(§7) 5′-Nucleotidase activity of purified recombinant wild type and mutant NT5C2 proteins was assessed using the 5′-nucleotidase (5′-NT) Enzymatic Test Kit (Diazyme, of Poway, Calif.), according to the manufacturer's instructions. […] H2O2 is quantified using a Trinder reaction. 5′-Nucleotidase activity levels are calculated using a calibrator of known 5′-NT activity as standard. Assays were performed in triplicate in an Infinite M200 Tecan (of Mannedorf, Switzerland) plate reader.

The next test has as its target T1, NT5C2 Q523X (Homo sapiens, UniProt P49902).
T1 construct: His6 (N); made in house; host or cells: Rosetta 2(DE3) E. coli (described for WT, K359Q, R367Q, D407A)
The experiment in a line: 5'-nucleotidase activity as a function of ATP concentration, Q523X. It counts as biochemical.

A further test addresses T2, NT5C2 R291W (Homo sapiens, UniProt P49902, R291W).
T2 construct: His6 (N); made in house; host or cells: Rosetta 2(DE3) E. coli (described for WT, K359Q, R367Q, D407A)
The experiment in a line: 5'-nucleotidase activity as a function of ATP concentration, R291W. It counts as biochemical.

For another test, the target named is T3, NT5C2 WT (Homo sapiens, UniProt P49902).
T3 construct: Full length cDNA constructs encoding wild type NT5C2, NT5C2 K359Q, NT5C2 R367Q and NT5C2 D407A were cloned; His6 (N); made in house; host or cells: Rosetta 2(DE3) E. coli
The experiment in a line: 5'-nucleotidase activity as a function of ATP concentration, wild type. It counts as biochemical. On the procedure: as §5, §6, §7

The mark [6] stands for this setting: read-out: A0.5, ATP concentration to achieve an activity equal to half Vmax.

T1 sequence (P49902 1-522 limits assumed): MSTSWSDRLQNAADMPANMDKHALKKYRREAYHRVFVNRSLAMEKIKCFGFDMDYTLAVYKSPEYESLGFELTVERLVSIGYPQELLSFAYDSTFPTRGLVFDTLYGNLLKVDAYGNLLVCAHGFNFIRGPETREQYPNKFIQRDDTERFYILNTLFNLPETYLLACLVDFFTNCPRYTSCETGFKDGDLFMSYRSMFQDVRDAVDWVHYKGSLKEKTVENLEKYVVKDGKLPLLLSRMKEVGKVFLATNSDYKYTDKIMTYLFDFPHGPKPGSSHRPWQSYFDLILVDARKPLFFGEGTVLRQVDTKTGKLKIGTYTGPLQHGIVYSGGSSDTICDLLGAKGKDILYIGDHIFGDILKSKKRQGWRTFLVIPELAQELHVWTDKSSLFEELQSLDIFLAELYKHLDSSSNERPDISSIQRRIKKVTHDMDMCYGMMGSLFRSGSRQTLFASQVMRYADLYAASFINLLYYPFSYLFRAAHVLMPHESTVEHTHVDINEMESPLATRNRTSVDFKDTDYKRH
T2 sequence (P49902 whole entry R291W): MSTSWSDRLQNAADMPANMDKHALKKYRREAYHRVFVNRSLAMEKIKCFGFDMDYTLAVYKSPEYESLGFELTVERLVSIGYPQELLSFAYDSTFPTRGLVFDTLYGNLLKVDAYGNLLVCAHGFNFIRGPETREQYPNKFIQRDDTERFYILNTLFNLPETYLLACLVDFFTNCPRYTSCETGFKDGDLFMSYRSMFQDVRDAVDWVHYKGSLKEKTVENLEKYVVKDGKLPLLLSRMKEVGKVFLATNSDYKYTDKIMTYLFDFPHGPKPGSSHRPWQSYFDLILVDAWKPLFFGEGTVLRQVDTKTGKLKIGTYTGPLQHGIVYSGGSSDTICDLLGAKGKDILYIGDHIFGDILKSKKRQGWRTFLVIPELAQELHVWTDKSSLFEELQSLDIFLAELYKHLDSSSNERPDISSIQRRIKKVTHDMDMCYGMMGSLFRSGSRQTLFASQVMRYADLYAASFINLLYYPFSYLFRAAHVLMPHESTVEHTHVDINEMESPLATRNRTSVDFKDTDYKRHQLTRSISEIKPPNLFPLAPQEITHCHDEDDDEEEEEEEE

For the compound `COc1nc(N)nc2c1ncn2[C@@H]1O[C@H](CO)[C@@H](O)[C@@H]1O` [nelarabine], in test [1], the “activity in cells expressing relapse-associated NT5C2 mutations compared to controls” value is “equally active” and the IC50 is ~100 µM. Further, in test [2], the IC50 is ~100 µM.
`Nc1nc2c(ncn2[C@@H]2O[C@H](CO)[C@@H](O)[C@@H]2O)c(=O)[nH]1` [AraG]: the “activity in cells expressing relapse-associated NT5C2 mutations compared to controls” value in test [1] is listed as “equally active”.
For `Nc1nc2nc[nH]c2c(=S)[nH]1` [6-TG, 6-thioguanine], the “increase of IC50 for mutations versus control (RFP) or wild type (NT5C2 WT)” value in test [1] is given as “greater than ten times as much”; in test [4], “about double”. For the same compound, in test [1], the “resistance to therapy compared with empty vector and wild type NT5C2 controls” value was “increased resistance”. Further, the IC50 was ~1 µM in test [2]; ~1 µM in test [3]; ~3.16 µM in test [4] (CUTLL1 cells expressing mutation NT5C2 R367Q, read from graph, read-out: log concentration at which viability falls to 50% (converted)).
As to `Sc1ncnc2nc[nH]c12` [6-MP, 6-mercaptopurine], the “increase of IC50 for mutations versus control (RFP) or wild type (NT5C2 WT)” value in test [1] is reported as “about double”; in test [4] it was “greater than ten times as much”. Further, the IC50 in test [1] was ~10 µM; in test [2] it was ~6.31 µM; in test [3], ~6.31 µM. In addition, in test [1], the “resistance to therapy compared with empty vector and wild type NT5C2 controls” value is recorded as “increased resistance”.
For `Nc1ncnc2c1ncn2[C@@H]1O[C@H](COP(=O)(O)OP(=O)(O)OP(=O)(O)O)[C@@H](O)[C@H]1O` [ATP], in test [5] (K359Q, R367Q, D407A, L375F, R238W), the “5'-NT activity relative to 0 mM ATP” value was “little change between reference activity and maximum activity”. Moreover, the EC50 in test [5] (remaining mutations, read-out: A0.5, ATP concentration to achieve an activity equal to half Vmax) was < 1000 µM; at NT5C2 Q523X (setting [6]), ~3000 µM; on NT5C2 R291W (setting [6]) it was ~4000 µM; at NT5C2 WT (setting [6]), 19500 µM. In addition, the figures for the “5'-NT activity relative to 0 mM ATP (factor of increase)” value at NT5C2 Q523X, at NT5C2 R291W and at NT5C2 WT (ATP concentrations over 20 mM) were “over 20”, “over 20” and “over 60”, respectively.
